In brackets after ≈: the same amount, converted by molar mass.
Columns and labels:
Assay type in all cases: functional
HT-29 = experiment: Compound was tested for its cytotoxic activity in MTT assay against HT-29 cell line (human colon adenocarcinoma); conditions: read-out: ED50 (the source's name)
Artemia = experiment: Compound was tested for its cytotoxic activity by brine shrimp lethality test
A549 = experiment: Compound was tested for its cytotoxic activity in MTT assay against A-549 cell line (human lung carcinoma); conditions: read-out: ED50 (the source's name)
MCF9 = experiment: Compound was tested for its cytotoxic activity in MTT assay against MCF-9 cell line (human breast carcinoma); conditions: read-out: ED50 (the source's name)

CO[C@]1(C(C)(C)O)CC[C@@H]([C@@H]2CC=C3[C@@]4(C)C(CC[C@]32C)[C@]2(C)C(C[C@H]4OC(C)=O)C(C)(C)C(OC(=O)c3ccccc3)C[C@@H]2OC(C)=O)CO1 (stereo partly specified)
EC50 (HT-29): 0.49 µg/mL (≈ 0.691 µM) | LC50 (Artemia): 107 µg/mL (≈ 150 µM) | EC50 (A549): 13.3 µg/mL (≈ 18.7 µM) | EC50 (MCF9): 3.06 µg/mL (≈ 4.32 µM)

CO[C@@]1(C(C)(C)O)CC[C@@H]([C@@H]2CC=C3[C@@]4(C)C(CC[C@]32C)[C@]2(C)C(C[C@H]4OC(C)=O)C(C)(C)C(OC(=O)c3ccccc3)C[C@@H]2OC(C)=O)CO1 (stereo partly specified)
EC50 (HT-29): 0.25 µg/mL (≈ 0.353 µM) | LC50 (Artemia): 89.3 µg/mL (≈ 126 µM) | EC50 (A549): 10.6 µg/mL (≈ 15 µM) | EC50 (MCF9): 2.02 µg/mL (≈ 2.85 µM)

COc1cccc2c1C(=O)c1c(O)c3c(c(O)c1C2=O)C[C@@](O)(C(=O)CO)C[C@@H]3O[C@H]1C[C@H](N)[C@H](O)[C@H](C)O1 [DOXORUBICIN]
EC50 (HT-29): 0.0261 µg/mL (≈ 0.048 µM) | EC50 (A549): 0.00844 µg/mL (≈ 0.0155 µM) | EC50 (MCF9): 0.0673 µg/mL (≈ 0.124 µM)

Reference: ChEMBL document CHEMBL1128616, “A pair of new apotirucallane triterpenes, meliavolkensins A and B, from Melia volkensii (Meliaceae)” (1995)
